These are literature values, as cited in patent US8293900B2, “Acylated spiropiperidine derivatives as melanocortin-4 receptor modulators” (Merck Sharp & Dohme Corp, priority 2005, dated 2012).

The conditions of series [1]: injected intramuscularly or subcutaneously, males with psychogenic erectile dysfunction.
For series [2] the following is noted: oral route.

Regarding “Ac-Nle-c[Asp-His-DPhe-Arg-Trp-Lys]-NH2 [MT-II]”, the response rate in series [1] is 75%. Further, the “absorption into the systemic circulation” value in series [2] is listed as “not absorbed into the systemic circulation”.
